Laboratory results published in patent US20140272095A1, “GLUTAMIC ACID DERIVATIVES” (Givaudan S.A., priority 2011, published 2014).

How the values were obtained:
Type in all cases: in vivo
[1] = Flavourist tasting of a 0.5% NaCl / 0.03% MSG solution, umami intensity versus reference solution A (Example 2); conditions: 10 ppm compound in 0.5% NaCl and 0.03% MSG; average rating of 4 flavourists versus solution A; scale -3 (much lower than base) to 3 (much higher), 0 = same as base
Protocol: (§1) Two solutions were prepared: • A a solution of 0.5% NaCl and 0.03% MSG • B a solution of 0.5% NaCl and 0.03% MSG and 10 ppm Example 1 compound
(§2) The samples were tasted by a small group of flavourists (2 male, 2 female, aged between 30 and 60). The intensity of the umami and salt taste of solution B was compared with that of the reference (solution A) and rated according to the following intensity scale:
(§3) The results (average of ratings given by the flavourists) were: […]

[2] = Bouillon tasting by flavourists versus reference bouillon (Example 4); conditions: 250 ppm in bouillon (32 g mix in 1 L boiling water); 4 flavourists
Protocol: A bouillon mix was prepared from 155.0 g of sodium chloride, 157.0 g of dextrose monohydrate (ex Tapioca), 0.2 g of celery oleoresin, 0.3 g of oleoresin turmeric Vegex, 0.2 g of oleoresin coriander seed, 444.8 g maltodextrin 5-8 DE, 40.0 g vegetable oil soya bean refined, 30.0 g yeast standard light, 4.0 g of onion powder, 4.0 g of garlic powder, 0.5 g of white pepper and 164.0 g of potato starch.
32 g of the well-mixed ingredients was added to 1 L of boiling water and stirred until completely dissolved.
A small group of flavourists (2 male, 2 female) compared the taste of the reference bouillon with that of a batch of the same bouillon containing 250 ppm of 2-(amino(carboxy)methyl)-cyclopropanecarboxylic acid. The flavourists agreed that the test bouillon was more umami and saltier than the reference bouillon.

[3] = Flavourist tasting of a 0.5% NaCl / 0.03% MSG solution, salt intensity versus reference solution A (Example 2); conditions: 10 ppm compound in 0.5% NaCl and 0.03% MSG; average rating of 4 flavourists versus solution A; scale -3 (much lower than base) to 3 (much higher), 0 = same as base
Protocol: as §1, §2, §3

[4] = Flavourist tasting, enhancement effect on NaCl (solution D versus A, Example 3); conditions: 10 ppm in 0.5% NaCl; marked between 0 and 10, greater value = greater effect; salt reference solution A = 0.0
Protocol: (§4) Six solutions were prepared: • A a solution of 0.5% NaCl • B a solution of 0.5% NaCl and 0.03% MSG • C a solution of 0.5% NaCl and 0.015% ribonucleotides • D a solution of 0.5% NaCl and 10 ppm Example 1 compound • E a solution of 0.5% NaCl and 0.03% MSG and 10 ppm Example 1 compound • F a solution of 0.5% NaCl and 0.015% ribonucleotides and 10 ppm Example 1 compound
(§5) The samples were tasted by a group of 5-10 flavourists aged between 30 and 60. The taste of solution D is compared with that of A to determine the enhancement effect of Example 1 compound on NaCl. Similarly, solution E is compared with solution B and solution F with solution C to determine the enhancement effect of Example 1 compound on MSG and ribonucleotides respectively. The effect is marked between 0 and 10, the greater the value the greater the effect.

[5] = Flavourist tasting, enhancement effect on MSG (solution E versus B, Example 3); conditions: 10 ppm in 0.5% NaCl and 0.03% MSG; marked between 0 and 10; MSG reference solution B = 5.0
Protocol: as §4, §5

[6] = Flavourist tasting, enhancement effect on ribonucleotides (solution F versus C, Example 3); conditions: 10 ppm in 0.5% NaCl and 0.015% ribonucleotides; marked between 0 and 10; ribo reference solution C = 5.0
Protocol: as §4, §5

[7] = Bread comparison by a panel of professional tasters (Example 5); conditions: bread B: 20 g NaCl and 0.025 g compound in the flour mixture; bread A: 20 g NaCl only
Protocol: A bread flour mixture was prepared by mixing 1250 g of wheat flour, 250 g of white wheat flour and 60 g of yeast. Two salt mixtures were added to separate flour mixtures: • A 20 g of NaCl • B 20 g of NaCl and 0.025 g (+−)-1-aminocyclopentane-trans-1,3-dicarboxylic acid
Doughs were prepared by mixing the ingredients and adding 900 g of water. The doughs were allowed to rise at room temperature for 2 hours and baked at 220° C. for 45 minutes.
A panel of professional tasters compared the breads. The bread B was preferred over reference bread A.

Structure (SMILES)	Intensity Taste Umami [1]	Salt taste of test bouillon versus reference bouillon [2]	Umami taste of test bouillon versus reference bouillon [2]	Intensity Taste Salt (NaCl) [3]	NaCl Taste [4]	MSG taste [5]	Ribo taste [6]	Preference of bread B over reference bread A [7]
NC(C(=O)O)C1CC1C(=O)O (centres unmarked) [2-(amino(carboxy)methyl)cyclopropanecarboxylic acid]	1.00	saltier	more umami	0.00	1.2	6.3	5.7	
CCOC(=O)C(N)C1CC1C(=O)OC.Cl (centres unmarked) [methyl 2-(1-amino-2-ethoxy-2-oxoethyl)cyclopropanecarboxylate, HCl]	1.00			0.00	0.0	5.5	5.4	
N[C@]1(C(=O)O)CC[C@H](C(=O)O)C1 (racemic) [(±)-1-Aminocyclopentane-cis-1,3-dicarboxylic acid]	0.00			1.00	1.3	6.7	5.2	
N[C@@]1(C(=O)O)CC[C@H](C(=O)O)C1 (racemic) [(±)-1-Aminocyclopentane-trans-1,3-dicarboxylic acid]	0.00			1.00	2.0	5.3	6.3	preferred
